Assay results from the supplement of paper PMC10883282.

Legend:
Assay in all cases: relative viability vs DMSO control (72 h) (fraction); higher = more viable cells
HT1080 = test system: HT1080
Summary of the method: (§1)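 Sarcoma cell lines were seeded in 384-well plates at densities chosen for 80–90% confluence, then 24 h later given 2.5 µl of serially diluted compound drawn from source plates spanning 10 mM to 0.0002 mM. They were held 72 h at 37 °C, 5% CO2, with 0.1% DMSO vehicle and a 5 µM positive control included. Relative viability was read with ATPLite as percent growth and averaged over up to triplicate wells. Rescaling placed full at 1 and none at 0.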

SW872 = test system: SW872
Summary of the method: as §1

SW1353 = test system: SW1353
Summary of the method: as §1

KHOS-NP = test system: KHOS-NP
Summary of the method: as §1

RD-ES = test system: RD-ES
Summary of the method: as §1

MES-SA = test system: MES-SA
Summary of the method: as §1

SK-ES-1 = test system: SK-ES-1
Summary of the method: as §1

SW684 = test system: SW684
Summary of the method: as §1

SK-LMS-1 = test system: SK-LMS-1
Summary of the method: as §1

G401 = test system: G401
Summary of the method: as §1

VA-ES-BJ = test system: VA-ES-BJ
Summary of the method: as §1

RD = test system: RD
Summary of the method: as §1

Cc1cc(F)c(C(=O)Nc2cccc(-c3nncn3C(C)C)n2)cc1-n1cnc(C2CC2)c1 [Selonsertib]
Conditions | relative viability
G401, 0.00017 µM | 1.02
G401, 0.00051 µM | 0.988
G401, 0.00152 µM | 1.01
G401, 0.00457 µM | 1.01
G401, 0.01372 µM | 0.995
G401, 0.04115 µM | 1.04
G401, 0.1235 µM | 1.01
G401, 0.3704 µM | 0.994
G401, 1.111 µM | 0.979
G401, 3.333 µM | 0.882
G401, 10 µM | 0.684
HT1080, 0.00017 µM | 1.01
HT1080, 0.00051 µM | 1.04
HT1080, 0.00152 µM | 1.04
HT1080, 0.00457 µM | 1.04
HT1080, 0.01372 µM | 1.05
HT1080, 0.04115 µM | 1.04
HT1080, 0.1235 µM | 1.04
HT1080, 0.3704 µM | 1.03
HT1080, 1.111 µM | 1.08
HT1080, 3.333 µM | 1.09
HT1080, 10 µM | 1.081
KHOS-NP, 0.00017 µM | 1.04
KHOS-NP, 0.00051 µM | 1.05
KHOS-NP, 0.00152 µM | 1.042
KHOS-NP, 0.00457 µM | 1.06
KHOS-NP, 0.01372 µM | 1.06
KHOS-NP, 0.04115 µM | 1.07
KHOS-NP, 0.1235 µM | 1.07
KHOS-NP, 0.3704 µM | 0.911
KHOS-NP, 1.111 µM | 1.06
KHOS-NP, 3.333 µM | 1.02
KHOS-NP, 10 µM | 0.707
MES-SA, 0.00017 µM | 0.887
MES-SA, 0.00051 µM | 0.892
MES-SA, 0.00152 µM | 0.907
MES-SA, 0.00457 µM | 0.893
MES-SA, 0.01372 µM | 0.895
MES-SA, 0.04115 µM | 0.93
MES-SA, 0.1235 µM | 0.928
MES-SA, 0.3704 µM | 0.912
MES-SA, 1.111 µM | 0.87
MES-SA, 3.333 µM | 0.78
MES-SA, 10 µM | 0.368
RD, 0.00017 µM | 1.11
RD, 0.00051 µM | 1.11
RD, 0.00152 µM | 1.09
RD, 0.00457 µM | 1.1
RD, 0.01372 µM | 1.11
RD, 0.04115 µM | 1.1
RD, 0.1235 µM | 1.09
RD, 0.3704 µM | 1.11
RD, 1.111 µM | 1.12
RD, 3.333 µM | 1.11
RD, 10 µM | 1.11
RD-ES, 0.00017 µM | 0.972
RD-ES, 0.00051 µM | 0.988
RD-ES, 0.00152 µM | 0.955
RD-ES, 0.00457 µM | 0.983
RD-ES, 0.01372 µM | 0.999
RD-ES, 0.04115 µM | 1.02
RD-ES, 0.1235 µM | 0.983
RD-ES, 0.3704 µM | 1.01
RD-ES, 1.111 µM | 0.994
RD-ES, 3.333 µM | 0.975
RD-ES, 10 µM | 0.537
SK-ES-1, 0.00017 µM | 1.01
SK-ES-1, 0.00051 µM | 1.05
SK-ES-1, 0.00152 µM | 1.03
SK-ES-1, 0.00457 µM | 1.09
SK-ES-1, 0.01372 µM | 1.08
SK-ES-1, 0.04115 µM | 1.03
SK-ES-1, 0.1235 µM | 1.03
SK-ES-1, 0.3704 µM | 1.01
SK-ES-1, 1.111 µM | 0.988
SK-ES-1, 3.333 µM | 0.896
SK-ES-1, 10 µM | 0.313
SK-LMS-1, 0.00017 µM | 1.07
SK-LMS-1, 0.00051 µM | 1.08
SK-LMS-1, 0.00152 µM | 1.08
SK-LMS-1, 0.00457 µM | 1.09
SK-LMS-1, 0.01372 µM | 1.11
SK-LMS-1, 0.04115 µM | 1.09
SK-LMS-1, 0.1235 µM | 1.09
SK-LMS-1, 0.3704 µM | 1.09
SK-LMS-1, 1.111 µM | 1.04
SK-LMS-1, 3.333 µM | 1.05
SK-LMS-1, 10 µM | 0.898
SW684, 0.00017 µM | 1.15
SW684, 0.00051 µM | 1.136
SW684, 0.00152 µM | 1.14
SW684, 0.00457 µM | 1.15
SW684, 0.01372 µM | 1.2
SW684, 0.04115 µM | 1.14
SW684, 0.1235 µM | 1.11
SW684, 0.3704 µM | 1.12
SW684, 1.111 µM | 1.1
SW684, 3.333 µM | 1.13
SW684, 10 µM | 1.012
SW872, 0.00017 µM | 0.995
SW872, 0.00051 µM | 1
SW872, 0.00152 µM | 1.02
SW872, 0.00457 µM | 1.03
SW872, 0.01372 µM | 1.03
SW872, 0.04115 µM | 1.04
SW872, 0.1235 µM | 1.06
SW872, 0.3704 µM | 1.05
SW872, 1.111 µM | 1.08
SW872, 3.333 µM | 1.07
SW872, 10 µM | 1.05
SW1353, 0.00017 µM | 0.962
SW1353, 0.00051 µM | 0.977
SW1353, 0.00152 µM | 0.951
SW1353, 0.00457 µM | 0.95
SW1353, 0.01372 µM | 0.934
SW1353, 0.04115 µM | 0.953
SW1353, 0.1235 µM | 0.968
SW1353, 0.3704 µM | 0.994
SW1353, 1.111 µM | 0.986
SW1353, 3.333 µM | 0.977
SW1353, 10 µM | 0.964
VA-ES-BJ, 0.00017 µM | 0.995
VA-ES-BJ, 0.00051 µM | 0.995
VA-ES-BJ, 0.00152 µM | 1.01
VA-ES-BJ, 0.00457 µM | 0.972
VA-ES-BJ, 0.01372 µM | 0.989
VA-ES-BJ, 0.04115 µM | 0.977
VA-ES-BJ, 0.1235 µM | 0.967
VA-ES-BJ, 0.3704 µM | 0.969
VA-ES-BJ, 1.111 µM | 0.938
VA-ES-BJ, 3.333 µM | 0.918
VA-ES-BJ, 10 µM | 0.848
